Data from patent EP2072511A1 (INSERM (Institut National de la Santé et de la Recherche …, priority 2007, dated 2009).

Columns and labels:
[1] = target: PrP^Sc from infected N2a58/22L cells (Mus musculus, UniProt P04925); type: cell-based, murine
[2] = target: T1, PrP^Sc from a prion-infected cellular lysate (Mus musculus, UniProt P04925); assay: biochemical; settings: 1 h, read-out: amplification of the oligomerization in cellular extract
[3] = target: T1, PrP^Sc from a prion-infected cellular lysate

Chain of PrP^Sc from infected N2a58/22L cells (P04925 23-230 limits assumed): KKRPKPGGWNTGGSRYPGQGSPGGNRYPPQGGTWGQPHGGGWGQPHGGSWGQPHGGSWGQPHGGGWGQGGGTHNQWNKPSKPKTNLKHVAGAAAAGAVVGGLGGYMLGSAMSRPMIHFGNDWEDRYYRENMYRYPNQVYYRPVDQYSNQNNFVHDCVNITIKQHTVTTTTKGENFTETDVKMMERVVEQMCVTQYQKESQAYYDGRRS
T1 sequence (P04925 23-230 limits assumed): as above

Structure (SMILES): Nc1nc(N)nc(-c2ccc(-c3ccc(-c4ccc(-c5ccc(-c6nc(N)nc(N)n6)s5)s4)s3)s2)n1 [compound I, 6,6'-(2,2':5',2":5",2'''-quaterthiophene-5,5'''-diyl)bis(1,3,5-triazine-2,4-diamine)]
- amount of oligomeric forms observed, compared with compound T 1 or T2 under the same conditions [1]: much greater
- dosis for which the saturation of the signal (effect of oligomerisation) is achieved [1]: 2.5 µM
- fold induction at 1 µM [2]: ≥ 100

Structure (SMILES): CSc1nccc(-c2ccc(Br)s2)n1 [T1]
- concentration at which the compound is efficient (oligomerization on cellular extract) [3]: ≥ 312 µM
